Experiment [1] relates to pERK in BRAF V600E cells expressing EGFR. In words: pERK MSD assay, basal and EGF-stimulated. Format: cell-based. The settings on record: serum starved, -EGF or +EGF. Here is the method:
(A) Table of genotype and EGFR levels among lines tested. (B) Measurement of basal and stimulated pERK levels: cells were treated with […] compound in serum free media for 1 hour. For stimulation 20 ng/ml EGF was added for 5 min before cells were lysed. Lysates were transferred to an MSD plate where phospho- and total ERK levels were measured. (C) pERK IC50 data are plotted for the two Raf inhibitors (CHR-265, 1-methyl-5-[[2-[5-(trifluoromethyl)-1H-imidazol-2-yl]-4-pyridinyl]oxy]-N-[4-(trifluoromethyl)phenyl]-1H-Benzimidazol-2-amine and GDC-0879) under basal and EGF-stimulated conditions.
FIG. 29 summarizes certain RAF inhibitor (GDC-0879, PLX-4720 and “Raf inh a” which is 2,6-difluoro-N-(3-methoxy-1H-pyrazolo[3,4-b]pyridin-5-yl)-3-(propylsulfonamido)benzamide) potencies for blocking cellular pERK induction in response to EGF stimulation.

Experiment [2] has as its system phospho-ERK (pERK) levels in HT-29 tumors. In words: phospho-ERK western blot of HT-29 tumor lysates. It counts as in vivo. The settings on record: RAF inhibitor a and Tarceva co-administered in mice. On the procedure: (§1) In FIG. 34A, RAF inh a was given at 100 mg/kg with increasing doses of Tarceva. In FIG. 34B, Tarceva was given to all animals with increasing concentrations of RAF inh a. […] In FIG. 34C, lysates from tumors treated with the indicated doses of inhibitors in FIGS. 34A and B were analyzed for phospho-ERK (pERK) levels by western blot.

The test system of experiment [3] is HT-29 BRAF V600E human colorectal carcinoma xenografts. In words: HT-29 xenograft combination efficacy. Format: in vivo, NCR nude (Taconic) mice. The conditions noted are these: RAF inh a and Tarceva given in combination. On the procedure: as §1
Experiment [4] deals with Venus-C-RAF / CFP-K-RAS in HEK293T cells. Description: C-RAF plasma membrane translocation, live cell confocal imaging. Format: cell-based. Set-up: dose or concentration left out as unconfirmed. An excerpt:
Aliquots of the membrane and cytosolic fractions were immunoblotted with the indicated antibodies. (B) HEK293T cells were transiently transfected with Venus-C-RAF (green), CFP-K-RAS (red) and mCherry-H2B (blue).

The subject of experiment [5] is B-RAFV600E cells. Description: Cellular proliferation of B-RAFV600E cells in presence of EGF, single agents and combinations. The settings on record: in combination with RAF inhibitor; 20 ng/ml EGF in the media. Format: cell-based. On the procedure: (A) Cells were treated with […] compound in serum free media for 1 hour. For stimulation 20 ng/ml EGF was added for 5 min before cells were lysed. Lysates were transferred to an MSD plate where phospho- and total MEK levels were measured. […] Cells were dosed with indicated inhibitors, either alone or in combination in the presence of 20 ng/ml EGF in the media.

Experiment [6] has as its system CX-1 cells. Description: Combination study of RAF inhibitor and Tarceva in colon tumor lines. It counts as cell-based. The conditions noted are these: Tarceva administered together with RAF inhibitor; CX-1 (high EGFR). An excerpt: FIGS. 32A-C depict combination studies of RAF inhibitor and EGFR inhibitor (Tarceva) in colon tumor lines with different levels of EGFR expression.
In FIG. 32C, the effects of combination treatment of CX-1 cells with either RAF inhibitor alone, Tarceva alone or combination of RAF inhibitor and Tarceva are shown. Neither RAF inhibitor alone nor Tarceva alone suppress proliferation as effectively as the combination. Both inhibitors show good synergy when administered together to CX-1 cells.

This is an account of results in patent US20150164895A1, “DETERMINING SENSITIVITY OF CELLS TO B-RAF INHIBITOR TREATMENT BY DETECTING KRAS MUTATION AND RTK EXPRESSION LEVELS” (GENENTECH, INC., priority 2009, published 2015).

Regarding `CCCS(=O)(=O)Nc1ccc(F)c(C(=O)Nc2cnc3[nH]nc(OC)c3c2)c1F` [Raf inh a, 2,6-difluoro-N-(3-methoxy-1H-pyrazolo[3,4-b]pyridin-5-yl)-3-(propylsulfonamido)benzamide], the “blocking wildtype RAF signaling / selectivity (pERK induction in response to EGF)” value in experiment [1] was “BRAF V600E selective”. Also, the “phospho-ERK levels in the tumors” value in experiment [2] is “synergized in decreasing phospho-ERK levels”. In experiment [3], the “antitumor efficacy in combination” value is recorded as “Increased efficacy”.
For the molecule `Cc1ccc(NC(=O)c2cccc(C(C)(C)C#N)c2)cc1Nc1ccc2ncn(C)c(=O)c2c1` [AZ-628, 3-(2-cyanopropan-2-yl)-N-(4-methyl-3-(3-methyl-4-oxo-3,4-dihydroquinazolin-6-ylamino)phenyl)benzamide], the “Venus-tagged C-RAF membrane translocation” value in experiment [4] is “co-localizes with CFP-KRAS on the plasma membrane”.
As for `CCCS(=O)(=O)Nc1ccc(F)c(C(=O)c2c[nH]c3ncc(Cl)cc23)c1F` [PLX4720, N-[3-[(5-chloro-1H-pyrrolo[2,3-b]pyridin-3-yl)carbonyl]-2,4-difluorophenyl]-1-propanesulfonamide], in experiment [1], the “blocking wildtype RAF signaling / selectivity (pERK induction in response to EGF)” value is reported as “BRAF V600E selective”.
Take `O=C(NOC[C@H](O)CO)c1ccc(F)c(F)c1Nc1ccc(I)cc1F` [PD-0325901]: the “resistance of cellular proliferation to RAF inhibitors under EGF” value in experiment [5] is on record as “overcomes that resistance”.
Consider `C#Cc1cccc(Nc2ncnc3cc(OCCOC)c(OCCOC)cc23)c1` [Tarceva, erlotinib], for which the “resistance of cellular proliferation to RAF inhibitors under EGF” value in experiment [5] is recorded as “overcomes that resistance”. Also, the “phospho-ERK levels in the tumors” value in experiment [2] is “synergized in decreasing phospho-ERK levels”. Besides, the “suppression of proliferation, combination effect” value in experiment [6] is listed as “good synergy”. Further, in experiment [3], the “antitumor efficacy in combination” value is reported as “Increased efficacy”.
